Laboratory results taken from ChEMBL document CHEMBL3044538, “QSAR Analysis of BABQ compounds via calculated molecular descriptors” (Med Chem Res, 2006).

Legend:
L1210 [1] = assay: Cytotoxicity against Mus musculus (mouse) L1210 cells; type: functional
Rattus norvegicus = species on record: Rattus norvegicus; assay: Toxicity in Rattus norvegicus (rat); type: organism-based; conditions: in vivo
B16 = assay: Antitumor activity against Mus musculus (mouse) B16 cells xenografted in rat; type: functional
L1210 [2] = assay: Antitumor activity against Mus musculus (mouse) L1210 cells xenografted in rat; type: functional

Structure (SMILES): O=C1C(Cl)=C(N2CC2)C(=O)C(Cl)=C1N1CC1
- log(1/MIC) (L1210 [1]): -0.3

Structure (SMILES): O=C1C(Br)=C(N2CC2)C(=O)C(Br)=C1N1CC1
- log(1/MIC) (L1210 [1]): 0.35

Structure (SMILES): O=C1C(N2CC2)=C(N2CC2)C(=O)C(N2CC2)=C1N1CC1
- log(1/MIC) (L1210 [1]): 0.9

Structure (SMILES): O=C1C(F)=C(N2CC2)C(=O)C(F)=C1N1CC1
- log(1/MIC) (L1210 [1]): -0.2

Structure (SMILES): CC1=C(C)C(=O)C(N2CCCC2)=CC1=O
- log(1/MIC) (L1210 [1]): -1.7

Structure (SMILES): CC1=C(N2CC2C)C(=O)C(Br)=C(N2CC2C)C1=O (centres undefined)
- log(1/LD50) (Rattus norvegicus): 1.59

Structure (SMILES): CCC1=C(N2CC2)C(=O)C(Br)=C(N2CC2)C1=O
- log(1/LD50) (Rattus norvegicus): 1.39
- log(1/MIC) (B16): 2.6

Structure (SMILES): CC1=C(N2C(C)C2C)C(=O)C(Br)=C(N2C(C)C2C)C1=O (centres undefined)
- log(1/MIC) (L1210 [1]): -0.1
- log(1/LD50) (Rattus norvegicus): 0.63
- log(1/MIC) (L1210 [2]): 0.69

Structure (SMILES): O=C1C(N2CCCC2)=C(N2CC2)C(=O)C(N2CCCC2)=C1N1CC1
- log(1/MIC) (L1210 [1]): -0.3
- log(1/MIC) (B16): 2.4

Structure (SMILES): O=C1C(F)=C(N2CC2)C(=O)C(N2CC2)=C1N1CC1
- log(1/LD50) (Rattus norvegicus): 1.62

Structure (SMILES): CN(CCO)C1=C(N2CC2)C(=O)C(N(C)CCO)=C(N2CC2)C1=O
- log(1/MIC) (L1210 [1]): 0.09

Structure (SMILES): CCOC(=O)NC1=C(N2CC2C)C(=O)C(NC(=O)OCC)=C(N2CC2C)C1=O (centres undefined)
- log(1/MIC) (L1210 [1]): -1
- log(1/LD50) (Rattus norvegicus): 0.69

Structure (SMILES): CC1=C(C)C(=O)C(N2CC=CC2)=CC1=O
- log(1/MIC) (L1210 [1]): -0.7

Structure (SMILES): NC(=O)OCCC1=C(N2CC2)C(=O)C(Br)=C(N2CC2)C1=O
- log(1/LD50) (Rattus norvegicus): 1.05
- log(1/MIC) (L1210 [2]): 2

Structure (SMILES): CC1=C(N2CC2C)C(=O)C(CCOC(N)=O)=C(N2CC2C)C1=O (centres undefined)
- log(1/MIC) (L1210 [1]): -0.1

Structure (SMILES): CC1CN1C1=CC(=O)C(N2CC2C)=CC1=O (centres undefined)
- log(1/LD50) (Rattus norvegicus): 1.16

Structure (SMILES): COC1=C(C)C(=O)C(N2CCCC2)=CC1=O
- log(1/MIC) (L1210 [1]): -1.6

Structure (SMILES): O=C1C=C(N2CCCC2)C(=O)C=C1N1CCCC1
- log(1/MIC) (L1210 [1]): -1.6

Structure (SMILES): O=C1C(NCCO)=C(N2CC2)C(=O)C(NCCO)=C1N1CC1
- log(1/MIC) (L1210 [1]): 0.42
- log(1/MIC) (L1210 [2]): 3.39
- log(1/MIC) (B16): 3.94

Structure (SMILES): CNC1=C(N2CC2C)C(=O)C(NC)=C(N2CC2C)C1=O (centres undefined)
- log(1/MIC) (L1210 [1]): -0.3
- log(1/MIC) (L1210 [2]): 2.19
- log(1/MIC) (B16): 2.33

Structure (SMILES): CC1CN1C1=CC(=O)C(N2CC2C)=C(F)C1=O (centres undefined)
- log(1/MIC) (L1210 [1]): 1.49
- log(1/LD50) (Rattus norvegicus): 1.5

Structure (SMILES): COC1=C(N2CC2C)C(=O)C=C(N2CC2C)C1=O (centres undefined)
- log(1/MIC) (L1210 [1]): -0.5
- log(1/LD50) (Rattus norvegicus): 1.4
- log(1/MIC) (L1210 [2]): 1.47
- log(1/MIC) (B16): 2.27

Structure (SMILES): CNC1=C(N2CC2)C(=O)C(NC)=C(N2CC2)C1=O
- log(1/MIC) (L1210 [1]): 0.32
- log(1/MIC) (L1210 [2]): 2.49
- log(1/MIC) (B16): 3.14

Structure (SMILES): CC1=C(N2CC2)C(=O)C(CCOC(N)=O)=C(N2CC2)C1=O
- log(1/LD50) (Rattus norvegicus): 1.99

Structure (SMILES): CC1CN1C1=C(N2CCCC2)C(=O)C(N2CC2C)=C(N2CCCC2)C1=O (centres undefined)
- log(1/MIC) (L1210 [1]): -1.1

Structure (SMILES): CC1=C(N2CC2)C(=O)C(Br)=C(N2CC2)C1=O
- log(1/LD50) (Rattus norvegicus): 1.44

Structure (SMILES): CC1CN1C1=C(F)C(=O)C(N2CC2C)=C(N2CC2C)C1=O (centres undefined)
- log(1/LD50) (Rattus norvegicus): 1.45

Structure (SMILES): CC1CN1C1=C(Cl)C(=O)C(N2CC2C)=C(Cl)C1=O (centres undefined)
- log(1/MIC) (L1210 [1]): -0.6
- log(1/MIC) (L1210 [2]): 1.16

Structure (SMILES): CC1CN1C1=C(Br)C(=O)C(N2CC2C)=C(Br)C1=O (centres undefined)
- log(1/MIC) (L1210 [1]): 0.77

Structure (SMILES): CCOC(=O)NC1=CC(=O)C(NC(=O)OCC)=CC1=O
- log(1/MIC) (L1210 [1]): 0.09

Structure (SMILES): O=C1C=C(N2CC=CC2)C(=O)C=C1N1CC=CC1
- log(1/MIC) (L1210 [1]): -1.6

Structure (SMILES): CC1=C(N2CC2)C(=O)C(CCO)=C(N2CC2)C1=O
- log(1/LD50) (Rattus norvegicus): 1.39
- log(1/MIC) (B16): 3.6

Structure (SMILES): CCC1=C(N2CC2)C(=O)C(C)=C(N2CC2)C1=O
- log(1/MIC) (L1210 [1]): -0.3
- log(1/LD50) (Rattus norvegicus): 1.46

Structure (SMILES): O=C1C=C(N2CC2)C(=O)C=C1N1CC1
- log(1/LD50) (Rattus norvegicus): 1.8

Structure (SMILES): COC1=C(N2CC2)C(=O)C(OC)=C(N2CC2)C1=O
- log(1/MIC) (L1210 [1]): 0.15

Structure (SMILES): COC(COC(N)=O)C1=C(N2CC2)C(=O)C(C)=C(N2CC2)C1=O (centres undefined) [CARBOQUONE]
- log(1/LD50) (Rattus norvegicus): 1.73

Structure (SMILES): CCOC(=O)NC1=C(N2CC2)C(=O)C(NC(=O)OCC)=C(N2CC2)C1=O [DIAZIQUONE]
- log(1/MIC) (L1210 [1]): -0.5
- log(1/LD50) (Rattus norvegicus): 1.54

Structure (SMILES): O=C1C=C(N2CC2)C(=O)C(N2CC2)=C1N1CC1 [TRIAZIQUONE]
- log(1/LD50) (Rattus norvegicus): 2.66
- log(1/MIC) (B16): 3.8
